Results from US9079906B2, “Triazolopyridazines as PAR1 inhibitors, production thereof, and use as medicaments” (Sanofi, priority 2008, dated 2015).
Counter-ions that a name gives are not always drawn.

target: PAR1 (Homo sapiens (Human), UniProt P25116); assay: PAR1 binding test (radioligand displacement, membrane preparation); conditions: human PAR1 expressed in High Five insect cell membranes; radioligand 20 nM; read-out: Inhibition of binding IC50
Protocol: The synthesized substances were examined in a PAR1 binding test. This tested whether the substances can inhibit the binding of a radioactively labeled PAR1 agonist known from the literature at the PAR1 receptor (Ho-Sam Ahn, Mol Pharm, 51:350-356, 1997). The human PAR1 receptor was expressed transiently in High Five insect cells. From these cells, after 48 hours, a membrane preparation was produced by standard methods, aliquoted into 10 mM Tris-HCl; 0.3 mM EDTA; 1 mM EGTA; 250 mM sucrose pH 7.5, and stored at −80° C.
The substances were preincubated with the membrane at room temperature for 15 minutes, then the radioligand (ALA-(para-F-Phe)-Arg-ChA-homoArg-(3,4-^3H-Tyr)-NH2; approx. 40 Ci/mMol) was added. The end concentration of the radioligand in the test buffer (50 mM Tris-HCl; 10 mM MgCl2; 1 mM EGTA; 0.1% BSA; 2% DMSO) was 20 nM, that of the membrane 1 mg/ml. After an incubation time of 60 minutes, 25 μL of the mixture were transferred to a 96-well MultiScreenHTS FB microtiter filtration plate (from Millipore), which had been pretreated beforehand with a 0.75% aqueous polyethyleneimine solution for 5 hours at room temperature. Thereafter, with vacuum extraction, each well was washed four times with 300 μL of buffer (50 mM Tris-HCl; 10 mM MgCl2; 1 mM EGTA). The plate was then dried overnight, 100 μl of scintillator per well were added, and the plate was analyzed after 6 hours in a Wallac MicroBeta (from PerkinElmer) liquid scintillation counter. The nonspecific binding was determined in the presence of 100 μM SCH79797 (PAR-1 antagonist; from Tocris, Cat. No. 1592) and subtracted from all measurements. The 100% value used was a control without inhibitor. The % inhibition values of a substance dilution series were used to calculate the IC50 with the aid of nonlinear regression analysis according to the 4-parameter equation.

PAR1, sequence (P25116 22-425): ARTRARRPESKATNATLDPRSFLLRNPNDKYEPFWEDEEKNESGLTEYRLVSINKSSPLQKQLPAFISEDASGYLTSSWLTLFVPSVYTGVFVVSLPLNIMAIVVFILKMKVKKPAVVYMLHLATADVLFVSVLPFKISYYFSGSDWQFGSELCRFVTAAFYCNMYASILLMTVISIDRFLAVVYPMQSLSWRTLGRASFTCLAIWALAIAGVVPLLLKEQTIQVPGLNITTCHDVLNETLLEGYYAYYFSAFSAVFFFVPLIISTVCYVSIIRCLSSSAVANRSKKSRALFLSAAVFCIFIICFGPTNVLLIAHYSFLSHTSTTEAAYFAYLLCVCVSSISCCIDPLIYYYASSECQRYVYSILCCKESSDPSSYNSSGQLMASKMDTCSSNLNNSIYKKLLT

Row | SMILES | IC50
1 | CCC(CC)Oc1cc(C)c2nn(CC(=O)c3cc(OCCO)c(OC)c(C(C)(C)C)c3)c(=N)n2n1 [Example 117, 1-[3-tert-butyl-5-(2-hydroxy-ethoxy)-4-methoxyphenyl]-2-[6-(1′-ethylpropoxy)-3-imino-8-methyl-[1,2,4]triazolo[4,3-b]-pyridazin-2-yl]ethanone hydrochloride] | 98 nM
2 | COc1c(OCCCCO)cc(C(=O)Cn2nc3c(C)cc(OCC4CC4)nn3c2=N)cc1C(C)(C)C [Example 199, 1-[3-tert-butyl-5-(4-hydroxy-butoxy)-4-methoxyphenyl]-2-(6-cyclopropylmethoxy-3-imino-8-methyl-[1,2,4]triazolo[4,3-b]pyridazin-2-yl)ethanone hydrochloride] | 206 nM
3 | CCOc1nn2/c(=N/C)n(CC(=O)c3cc(OCCO)cc(C(C)(C)C)c3)nc2c(C)c1C [Example 163, 1-[3-tert-butyl-5-(2-hydroxy-ethoxy)phenyl]-2-{6-ethoxy-7,8-dimethyl-3-[(E)-methylimino]-[1,2,4]triazolo[4,3-b]pyridazin-2-yl}ethanone hydrochloride] | 364 nM
4 | CCOc1nn2c(=N)n(CC(=O)c3cc(OCCCCO)c(OC)c(C(C)(C)C)c3)nc2c(C)c1C [Example 178, 1-[3-tert-butyl-5-(4-hydroxy-butoxy)-4-methoxyphenyl]-2-(6-ethoxy-3-imino-7,8-dimethyl-[1,2,4]triazolo[4,3-b]pyridazin-2-yl)ethanone hydrochloride] | 126 nM
5 | Cc1cc(OCC2(C)COC2)nn2c(=N)n(CC(=O)c3cc(OCCO)cc(C(C)(C)C)c3)nc12 [Example 236, 1-[3-tert-butyl-5-(2-hydroxy-ethoxy)phenyl]-2-[3-imino-8-methyl-6-(3-methyloxetan-3-ylmethoxy)-[1,2,4]triazolo[4,3-b]-pyridazin-2-yl]ethanone hydrobromide] | 1400 nM
6 | CCOc1nn2c(=N)n(CC(=O)c3cc(N4CCOCC4)c(OC)c(C(C)(C)C)c3)nc2cc1CC [Example 144, 1-(3-tert-butyl-4-methoxy-5-morpholin-4-ylphenyl)-2-(6-ethoxy-7-ethyl-3-imino-[1,2,4]triazolo[4,3-b]pyridazin-2-yl)ethanone trifluoroacetic acid salt] | 827 nM
7 | CCNC(=O)c1nn2/c(=N/C)n(CC(=O)c3cc(OCCCO)c(OC)c(C(C)(C)C)c3)nc2c(C)c1C [Example 239, N-ethyl-2-{2-[3-tert-butyl-5-(3-hydroxypropoxy)-4-methoxy-phenyl]-2-oxoethyl}-7,8-dimethyl-3-[(E)-methylimino]-2,3-dihydro-[1,2,4]triazolo[4,3-b]pyridazine-6-carboxamide hydrochloride] | 113 nM

Further compounds by falling IC50, results first:

Row | IC50 | SMILES
8 | 1400 nM | COCCCOc1cc(C(=O)Cn2nc3c(C)cc(OCCO)nn3c2=N)cc(C(C)(C)C)c1 [Example 101, 1-[3-tert-butyl-5-(3-methoxy-propoxy)phenyl]-2-[6-(2-hydroxyethoxy)-3-imino-8-methyl-[1,2,4]triazolo[4,3-b]pyridazin-2-yl]ethanone hydrochloride]
9 | 1100 nM | CCC(CC)Oc1ccc2nn(CC(=O)c3cc(OCC4CC4)cc(C(C)(C)C)c3)c(=N)n2n1 [Example 26, 1-(3-tert-butyl-5-cyclopropylmethoxyphenyl)-2-[6-(1-ethylpropoxy)-3-imino-[1,2,4]triazolo[4,3-b]pyridazin-2-yl]ethanone hydrochloride]
10 | 234 nM | CCOc1nn2c(=N)n(CC(=O)c3cc(C(C)(C)C)cc(C(C)(C)OC)c3)nc2c(C)c1C [Example 230, 1-[3-tert-butyl-5-(1-methoxy-1-methylethyl)phenyl]-2-(6-ethoxy-3-imino-7,8-dimethyl-[1,2,4]triazolo[4,3-b]pyridazin-2-yl)ethanone hydrochloride]
11 | 119 nM | CCN(CC)c1nn2c(=N)n(CC(=O)c3cc(OCCCO)c(OC)c(C(C)(C)C)c3)nc2c(C)c1C [Example 186, 1-[3-tert-butyl-5-(3-hydroxy-propoxy)-4-methoxyphenyl]-2-(6-diethylamino-3-imino-7,8-methyl-[1,2,4]triazolo[4,3-b]pyridazin-2-yl)ethanone hydrochloride]
